Reference: US20050112573A1, “Method of detecting toxic substance” (priority 2001, published 2005)

Tested on: yeast genes (level of expressed mRNA)
Assay: DNA chip analysis of expressed mRNA of yeast genes after 2 h culture with a toxic chemical substance
Type: cell-based, Saccharomyces cerevisiae S288C
Details: for The level of expressed mRNA in the presence of chemical substance/ (ratio to absence of chemical substance): stress protein genes, DNA chip
Procedure: Yeast (Saccharomyces cerevtisiae S288C (α SUC2mal mel gap2 CUP1)) were cultured at 25° C. on YPD medium (yeast extract 1%, polypepton 2%, glucose 2%). One of toxic chemical substances was added to the cell at logarithmic growth phase, and the cell was further cultured for two hours. Cell was cultured without any chemical substance in the same condition, and was used as control. Concentrations of the chemical substances were defined to inhibit the growth of the yeast but not lead to death.
After the completion of cultivation, the culture was centrifuged to collect the cells. To the cells, sodium acetate buffer (50 mM sodium acetate, 10 mM EDTA, 1% SDS) was added, and the mixture was shaken at 65° C. for five minutes, followed by returning to room temperature, and obtaining the supernatant, which procedure was repeated two times. To the supernatant, ½ amount of a solution of phenol/chloroform was added, and the mixture was centrifuged to give a supernatant, which was added with an equal amount of chloroform, and the mixture was centrifuged to give a supernatant. To the supernatant, an equal amount of isopropanol containing 0.3 M sodium acetate was added, and the mixture was allowed to stand at room temperature for 30 minutes, after which the mixture was centrifuged to give a sediment of the whole RNAs. Seventy % ethanol was added to the sediment, and the mixture was again centrifuged to give a sediment, which was then dried and dissolved in water. mRNA was isolated from the whole RNAs as followings. In view of the fact that a poly A chain is attached to the 3′ terminus of mRNA, a polynucleotide having a poly T structure which was immobilized on the surface of latex beads was used to trap the mRNA, and then the mRNA was washed and eluted with spine column (Oligotex-dT30<Super>mRNA Purification Kit, Takara). Reverse transcription of the mRNA was conducted with a reverse transcriptase (Super Script II Reverse Transcriptase; catalogue No. 18064-014, GibcoBRL) using fluorescence-labeled nucleotides to give cDNAs that were introduced with Cy3-dUTP or Cy5-dUTP during the reverse transcription.
The labeled cDNAs were dissolved in TE buffer (10 mM Tris-HCl/1 mM EDTA, pH8.0), and the solution was dropped on the DNA chip containing the whole genes of yeast (DNA Chip Research Inc. Japan) so that the cDNAs were hybridized on the DNA chip at 65° C. for over 12 hours. The fluoresces intensity of the DNA chip was read with a scanner, and the ratio relative to the fluorescence intensity resulting from the absence of chemical substance was estimated as the following, which is shown in Tables 1 to 9: [formula]
In the Tables, “Intensity” indicated in the rightmost column is a value of the level of expressed mRNA of each gene in control cells as divided by the average level of the expressions of the whole genes.

Compound: CCCCC[C@H](O)CC(=O)CCc1ccc(O)c(OC)c1 [(13), gingerol]
- The level of expressed mRNA in the presence of chemical substance/ in its absence, gene YDL078C (yeast gene YDL078C, ratio of DNA chip fluorescence intensity to that without chemical substance): 1.0
- The level of expressed mRNA in the presence of chemical substance/ (in its absence), gene YDL215C (yeast gene YDL215C, ratio of DNA chip fluorescence intensity to that without chemical substance): 1.5
- The level of expressed mRNA in the presence of chemical substance/The level of expressed mRNA in the absence of chemical substance (yeast gene YDL238C): 2.0
- The level of expressed mRNA in the presence of chemical substance/The level of expressed mRNA in the absence of chemical substance (yeast gene YDR055W): 3.1
- The level of expressed mRNA in the presence of chemical substance/ (in its absence), gene YDR073W (yeast gene YDR073W, ratio of DNA chip fluorescence intensity to that without chemical substance): 0.6
- The level of expressed mRNA in the presence of chemical substance/ in its absence, gene YDR079W (yeast gene YDR079W, energy system protein genes, 2 h culture with the chemical, ratio to control without chemical): 1.3
- The level of expressed mRNA in the presence of chemical substance/ (ratio to absence), gene YDR079W (yeast gene YDR079W, mitochondria-located protein genes, 2 h culture with chemical): 1.3
- The level of expressed mRNA in the presence of chemical substance/The level of expressed mRNA in the absence of chemical substance (yeast gene YDR084C): 1.0
- The level of expressed mRNA in the presence of chemical substance/The level of expressed mRNA in the absence of chemical substance (yeast gene YDR085C): 1.1
- The level of expressed mRNA in the presence of chemical substance/The level of expressed mRNA in the absence of chemical substance (yeast gene YDR104C): 1.6
- The level of expressed mRNA in the presence of chemical substance/The level of expressed mRNA in the absence of chemical substance (yeast gene YDR115W): 1.1
- The level of expressed mRNA in the presence of chemical substance/The level of expressed mRNA in the absence of chemical substance (yeast gene YDR259C): 2.0
- The level of expressed mRNA in the presence of chemical substance/ (in its absence), gene YDR297W (yeast gene YDR297W, ratio of DNA chip fluorescence intensity to that without chemical substance): 0.8
- The level of expressed mRNA in the presence of chemical substance/The level of expressed mRNA in the absence of chemical substance (yeast gene YDR315C): 1.6
- The level of expressed mRNA in the presence of chemical substance/The level of expressed mRNA in the absence of chemical substance (yeast gene YDR358W): 3.2
- The level of expressed mRNA in the presence of chemical substance/ (ratio to absence), gene YDR377W (yeast gene YDR377W, mitochondria-located protein genes, 2 h culture with chemical): 0.7
- The level of expressed mRNA in the presence of chemical substance/ (in its absence), gene YDR387C (yeast gene YDR387C, ratio of DNA chip fluorescence intensity to that without chemical substance): 1.3
- The level of expressed mRNA in the presence of chemical substance/The level of expressed mRNA in the absence of chemical substance (yeast gene YDR388W): 1.7
- The level of expressed mRNA in the presence of chemical substance/The level of expressed mRNA in the absence of chemical substance (yeast gene YDR432W): 1.4
- The level of expressed mRNA in the presence of chemical substance/The level of expressed mRNA in the absence of chemical substance (yeast gene YDR481C): 1.5
- The level of expressed mRNA in the presence of chemical substance/The level of expressed mRNA in the absence of chemical substance (yeast gene YDR510W): 2.0
- The level of expressed mRNA in the presence of chemical substance/ (ratio to absence of chemical substance) (yeast gene YEL039C): 0.5
- The level of expressed mRNA in the presence of chemical substance/The level of expressed mRNA in the absence of chemical substance (yeast gene YEL042W): 0.4
- The level of expressed mRNA in the presence of chemical substance/The level of expressed mRNA in the absence of chemical substance (yeast gene YEL066W): 1.6
- The level of expressed mRNA in the presence of chemical substance/ (in its absence), gene YER015W (yeast gene YER015W, ratio of DNA chip fluorescence intensity to that without chemical substance): 0.8
- The level of expressed mRNA in the presence of chemical substance/The level of expressed mRNA in the absence of chemical substance (yeast gene YER039C): 2.1
- The level of expressed mRNA in the presence of chemical substance/ (ratio to absence of chemical substance) (yeast gene YER057C): 1.0
- The level of expressed mRNA in the presence of chemical substance/The level of expressed mRNA in the absence of chemical substance (yeast gene YER107C): 0.9
- The level of expressed mRNA in the presence of chemical substance/The level of expressed mRNA in the absence of chemical substance (yeast gene YER130C): 1.6
- The level of expressed mRNA in the presence of chemical substance/The level of expressed mRNA in the absence of chemical substance (yeast gene YFL028C): 1.4
- The level of expressed mRNA in the presence of chemical substance/The level of expressed mRNA in the absence of chemical substance (yeast gene YFL043C): 1.5
- The level of expressed mRNA in the presence of chemical substance/ (in its absence), gene YGL035C (yeast gene YGL035C, ratio of DNA chip fluorescence intensity to that without chemical substance): 1.1
- The level of expressed mRNA in the presence of chemical substance/ (in its absence), gene YGL115W (yeast gene YGL115W, ratio of DNA chip fluorescence intensity to that without chemical substance): 0.7
- The level of expressed mRNA in the presence of chemical substance/ (ratio to absence of chemical substance) (yeast gene YGL115W): 0.7
- The level of expressed mRNA in the presence of chemical substance/The level of expressed mRNA in the absence of chemical substance (yeast gene YGL158W): 1.0
- The level of expressed mRNA in the presence of chemical substance/ (ratio to absence), gene YGL187C (yeast gene YGL187C, mitochondria-located protein genes, 2 h culture with chemical): 0.7
- The level of expressed mRNA in the presence of chemical substance/ (in its absence), gene YGL205W (yeast gene YGL205W, ratio of DNA chip fluorescence intensity to that without chemical substance): 1.0
- The level of expressed mRNA in the presence of chemical substance/The level of expressed mRNA in the absence of chemical substance (yeast gene YGL229C): 1.7
- The level of expressed mRNA in the presence of chemical substance/ in its absence, gene YGR062C (yeast gene YGR062C, energy system protein genes, 2 h culture with the chemical, ratio to control without chemical): 1.5
- The level of expressed mRNA in the presence of chemical substance/ (ratio to absence), gene YGR062C (yeast gene YGR062C, mitochondria-located protein genes, 2 h culture with chemical): 1.5
- The level of expressed mRNA in the presence of chemical substance/ (in its absence), gene YGR096W (yeast gene YGR096W, ratio of DNA chip fluorescence intensity to that without chemical substance): 1.1
- The level of expressed mRNA in the presence of chemical substance/The level of expressed mRNA in the absence of chemical substance (yeast gene YGR136W): 1.7
- The level of expressed mRNA in the presence of chemical substance/The level of expressed mRNA in the absence of chemical substance (yeast gene YGR189C): 1.2
- The level of expressed mRNA in the presence of chemical substance/The level of expressed mRNA in the absence of chemical substance (yeast gene YGR213C): 30.4
- The level of expressed mRNA in the presence of chemical substance/The level of expressed mRNA in the absence of chemical substance (yeast gene YGR257C): 2.0
- The level of expressed mRNA in the presence of chemical substance/ (in its absence), gene YGR287C (yeast gene YGR287C, ratio of DNA chip fluorescence intensity to that without chemical substance): 1.7
- The level of expressed mRNA in the presence of chemical substance/ (in its absence), gene YGR288W (yeast gene YGR288W, ratio of DNA chip fluorescence intensity to that without chemical substance): 1.3
- The level of expressed mRNA in the presence of chemical substance/ (ratio to absence of chemical substance) (yeast gene YHL028W): 2.1
- The level of expressed mRNA in the presence of chemical substance/ (ratio to absence of chemical substance) (yeast gene YHL046C): 1.4
- The level of expressed mRNA in the presence of chemical substance/The level of expressed mRNA in the absence of chemical substance (yeast gene YHR004C): 1.1
- The level of expressed mRNA in the presence of chemical substance/The level of expressed mRNA in the absence of chemical substance (yeast gene YHR071W): 2.3
- The level of expressed mRNA in the presence of chemical substance/The level of expressed mRNA in the absence of chemical substance (yeast gene YHR139C): 7.0
- The level of expressed mRNA in the presence of chemical substance/The level of expressed mRNA in the absence of chemical substance (yeast gene YHR142W): 1.2
- The level of expressed mRNA in the presence of chemical substance/ (in its absence), gene YHR210C (yeast gene YHR210C, ratio of DNA chip fluorescence intensity to that without chemical substance): 0.4
- The level of expressed mRNA in the presence of chemical substance/ (in its absence), gene YIL006W (yeast gene YIL006W, ratio of DNA chip fluorescence intensity to that without chemical substance): 0.8
- The level of expressed mRNA in the presence of chemical substance/ (ratio to absence of chemical substance) (yeast gene YIL011W): 0.5
- The level of expressed mRNA in the presence of chemical substance/The level of expressed mRNA in the absence of chemical substance (yeast gene YIL123W): 0.4
